Experiment [1] relates to MCF7. Description: Antiproliferative activity against human MCF7 cells harboring ER-alpha D538G mutant assessed as inhibition of cell growth by CCK8 assay. The class given is functional, cell-based. A general note: Formazan colour is commonly taken as a measure of viable cells.
The nature of experiment [2]: Induction of apoptosis in tamoxifen-resistant human LCC2 cells assessed as late apoptotic cells incubated for 48 hrs by AnnexinV-FITC/PI staining based flow cytometry (reference value: 4.83%). The class given is functional, Tamoxifen-resistant LCC2 cell. In general terms: In flow cytometry, cells or beads pass a laser one at a time.
The test system of another experiment is Mus musculus. Briefly: In vivo PROTAC activity at CRBN/SRC-3 in Balb/c mouse xenografted with tamoxifen-resistant human LCC2 cells assessed as induction of SRC-3 degradation in tumor tissues at 5 uM/Kg, ip administered once every 2 days for 23 days and measured on day 25 by western blot analysis. The class given is functional, organism-based. The conditions noted are these: time 25.0 day. (A xenograft is tissue or cells of one species grown in another, often human tumour cells in immunodeficient mice.)

Experiment [3] deals with MCF7. Briefly: Induction of SRC-3 degradation in human MCF7 cells at 1 uM incubated for 24 hrs by immunoblot analysis relative to control. The class given is cell-based.
Experiment [4] in a line: Antiproliferative activity against tamoxifen-resistant human LCC2 cells assessed as inhibition of cell growth by CCK8 assay. In kind it is functional, cell-based.
A short description of experiment [5]: Induction of apoptosis in tamoxifen-resistant human LCC2 cells assessed as viable cells incubated for 48 hrs by AnnexinV-FITC/PI staining based flow cytometry (reference value: 88.09%). The class given is functional, Tamoxifen-resistant LCC2 cell.
A short description of experiment [6]: Induction of apoptosis in tamoxifen-resistant human LCC2 cells assessed as early apoptotic cells incubated for 48 hrs by AnnexinV-FITC/PI staining based flow cytometry (reference value: 5.92%). In kind it is functional, Tamoxifen-resistant LCC2 cell.
In experiment [7] the test system is MCF7. Description: Antiproliferative activity against human MCF7 cells harboring ER-alpha Y537S mutant assessed as inhibition of cell growth by CCK8 assay. The class given is functional, cell-based.
The test system of experiment [8] is MCF7. Briefly: Antiproliferative activity against human MCF7 cells assessed as inhibition of cell growth by CCK8 assay. The class given is functional, cell-based.
For experiment [9], the system named is MCF7. Briefly: Induction of ER-alpha degradation in human MCF7 cells at 1 uM incubated for 24 hrs by immunoblot analysis relative to control. In kind it is cell-based.
Experiment [10] can be described thus: Induction of apoptosis in tamoxifen-resistant human LCC2 cells assessed as necrotic cells incubated for 48 hrs by AnnexinV-FITC/PI staining based flow cytometry (reference value: 1.16%). The class given is functional, Tamoxifen-resistant LCC2 cell.

The term pIC50 denotes the negative decadic logarithm of the IC50, by convention in mol/L.

The structures appear in SMILES notation. pIC50: −log10 of the molar value. The source made the active and inactive calls. No cut-off for these calls is given here.

Take `C[C@]12CC[C@@H]3c4ccc(O)cc4C[C@@H](CCCCCCCCC[S+]([O-])CCCC(F)(F)C(F)(F)F)[C@H]3[C@@H]1CC[C@@H]2O` (stereo partly specified) [FULVESTRANT]: the pIC50 with MCF7 [1] was 6.24; in experiment [4], 6.33; in the experiment with MCF7 [7], 5.21; in the experiment with MCF7 [8], 6.66. The Activity in experiment [2] was found to be 12.06%; in experiment [5] it was 69.81%; in experiment [6], 15.07%; with MCF7 [9] it was 86%; in [10] it was 3.06%. For the same compound, the result with Mus musculus and in the experiment on MCF7 [3] was inactive.

Source of the values: ChEMBL document CHEMBL6178017, “Intercepting the Downstream of the Estrogen Receptor Signaling Pathway: Discovery of a Potent and Efficient SRC-3 PROTAC Degrader for Overcoming Endocrine Resistance Breast Cancer” (J Med Chem, 2025).
